# Test results reported in PMC9446893, “Zinc(II) Complex with Pyrazolone-Based Hydrazones is Strongly Effective against Trypanosoma brucei Which Causes African Sleeping Sickness” (Inorganic Chemistry, 2022).
# Tests used:
# T. brucei TC221 = test: Viability of T. brucei TC221 bloodstream forms (resazurin fluorescence); type: cell-based, Trypanosoma brucei
# Protocol: (§1) The biological assays have been conducted in collaboration with Prof. Anders Hofer, Department of Medical Biochemistry and Biophysics, Umeå University, Umeå, Sweden. T. bruceiTC221 bloodstream forms and mouse embryonic fibroblast Balb/3T3 cells (ATCC no CCL-163) were cultivated in a vented plastic flask at 37 °C with 5% CO2. For T. brucei, the growth medium was Hirumi’s modified Iscoves medium (HMI)-9 supplemented with 10% (v/v) fetal bovine serum (Thermo Fischer Scientific Gibco, Waltham, MA, USA), whereas the Balb/3T3 cells were grown in Dulbecco’s modified Eagle’s medium (Sigma-Aldrich) supplemented with 10% (v/v) heat-inactivated fetal bovine serum, glutamine (0.584 g/L), and 10 mL/L 100 × penicillin–streptomycin (Gibco).[48]−[50] […] The plates were incubated for 48 h in the 5%CO2 incubator; then, 20 μL of 0.5 mM resazurine (Sigma-Aldrich) was added to each well, and the plates were incubated for an additional 24 h before the fluorescence was measured with the Synergy H4 microplate reader (excitation wavelength 530 or 540 nm and emission wavelength 590 nm).
# (§2) The half-maximal efficacious concentration (EC50) values were calculated on the log inhibitor versus the response curves by non-linear regression using the GraphPad prism 5.2 software (GraphPad Software, Inc., La Jolla, CA, USA). […]
# Balb/3T3 cells = test: Cytotoxicity on Balb/3T3 mammalian reference cells (resazurin fluorescence); type: cell-based; settings: mouse embryonic fibroblasts, 48 h + 24 h with resazurin
# Protocol: as §1, §2
smiles,measurement,setting,value
"Cc1ccc(C(=O)Nc2ccc(S(=O)(=O)O)c3cc(S(=O)(=O)O)cc(S(=O)(=O)O)c23)cc1NC(=O)c1cccc(NC(=O)Nc2cccc(C(=O)Nc3cc(C(=O)Nc4ccc(S(=O)(=O)O)c5cc(S(=O)(=O)O)cc(S(=O)(=O)O)c45)ccc3C)c2)c1 [suramin, reference compound]",SI (selectivity index),T. brucei TC221; T. brucei versus Balb/3T3 reference cells,>100
same,EC50,"T. brucei TC221; Trypanosoma brucei, bloodstream forms, 48 h + 24 h with resazurin",0.023 ± 0.0008 µM
same,EC50,Balb/3T3 cells,43.9 ± 1.44 µM
